pIC50: −log10 of the molar value.
Biological target: TRPV1 (Mus musculus, UniProt Q704Y3)
Test: whole-cell patch clamp, inhibition of capsaicin
Assay type: cell-based

TRPV1, sequence (Q704Y3 whole entry): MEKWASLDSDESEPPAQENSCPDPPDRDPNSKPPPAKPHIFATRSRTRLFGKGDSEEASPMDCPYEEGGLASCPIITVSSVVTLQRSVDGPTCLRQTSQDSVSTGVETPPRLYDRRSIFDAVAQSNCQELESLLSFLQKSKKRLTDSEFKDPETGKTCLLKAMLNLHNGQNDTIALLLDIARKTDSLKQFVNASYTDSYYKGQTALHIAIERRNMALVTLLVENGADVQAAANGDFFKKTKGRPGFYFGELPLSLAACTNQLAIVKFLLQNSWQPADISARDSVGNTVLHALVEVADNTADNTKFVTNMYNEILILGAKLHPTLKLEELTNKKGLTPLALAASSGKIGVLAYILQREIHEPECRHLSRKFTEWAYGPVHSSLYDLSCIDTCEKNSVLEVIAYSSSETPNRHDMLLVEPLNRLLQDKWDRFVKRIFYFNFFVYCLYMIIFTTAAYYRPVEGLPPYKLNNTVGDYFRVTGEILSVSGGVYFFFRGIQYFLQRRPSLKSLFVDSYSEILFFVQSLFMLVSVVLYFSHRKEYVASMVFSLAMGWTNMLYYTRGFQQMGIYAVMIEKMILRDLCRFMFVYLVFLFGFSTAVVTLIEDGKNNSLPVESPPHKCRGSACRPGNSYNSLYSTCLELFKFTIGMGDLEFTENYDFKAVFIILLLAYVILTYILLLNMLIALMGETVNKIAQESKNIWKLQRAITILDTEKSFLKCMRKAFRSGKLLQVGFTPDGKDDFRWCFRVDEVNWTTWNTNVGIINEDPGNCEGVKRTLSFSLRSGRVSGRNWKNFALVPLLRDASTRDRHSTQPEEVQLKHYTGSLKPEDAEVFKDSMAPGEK

pIC50: 6.79
SMILES: CC(C)(C)c1ccc(/C=C/C(=O)Nc2ccc3c(c2)OCCO3)cc1 [AMG9810]

Reference: PMC3202339 (2011)
